Results as given in patent US20240101566A1, “TRICYCLIC UBIQUITIN SPECIFIC PROTEASE 1 INHIBITOR AND USE THEREOF” (SHANDONG XUANZHU PHARMA CO., LTD., priority 2021, published 2024).

What was measured:
[1] = target: T1, Recombinant Human His6-USP1/His6-UAF1 Complex Protein (Homo sapiens (Human), UniProt O94782); assay: In-vitro enzymatic activity on USP1, second experimental method (60 min incubation); type: biochemical; conditions: incubation at room temperature 60 minutes, read-out: Inhibitory activities on USP-1, IC50
Method: (§1) 1) An enzyme solution was prepared in 1×test buffer.
(§2) 2) Ubiquitin Rhodamine 110 protein, CF (UB-Rho), was added into 1×determination buffer to prepare a substrate solution.
(§3) 3) 10 μL of enzyme solution and 1×reaction buffer were transferred to a 384-well plate, and
(§4) 4) incubated at room temperature for 15 minutes.
(§5) 5) 10 μL of substrate solution was added into each well to start the reaction, centrifuged for 30 seconds, and shaken for 30 seconds.
(§6) 1) Plate reading was carried out on SpectraMax Paradigm for 30 minutes, with an excitation wavelength of 480 nm and an emission wavelength of 540 nm.
(§7) [formula] • wherein, Max represented: a luminous signal intensity of a positive control well without adding the compound; • Min represented: a luminous signal intensity of a negative control well without adding the enzyme; and • Signal represented: a luminous signal intensity of the compound of the test sample.
(§8) [formula] • wherein, Y represented: % inhibition; and • X represented: the concentration of the compound.
(§9) Second Experimental Method:
In the enzyme reaction experiment, the incubation time at room temperature in the step 4) was changed to 60 minutes, other conditions were the same as those in the first experimental method, and the following test results were obtained: […]

MDA-MB-436 cells [2] = assay: Second in-vitro cytological inhibitory activity experiment, first method (CelltiterGlo assay), MDA-MB-436; type: cell-based; conditions: Homo sapiens, MDA-MB-436, 168 h, Experimental Example 3 first method, 3,000 cells/well, 7 days, read-out: In-vitro cytological activities, IC50, MDA-MB-436
Method: (§10) Experimental Example 3 Second Experiment of in-vitro Cytological Inhibitory Activities of Compounds of the Present Disclosure
(§11) Cell lines used in the following experiment were as follows: MDA-MB-436: human breast cancer cells; and Caov-3: Human ovarian cancer cells
(§12) First Experimental Method (CelltiterGlo Assay)
(§13) All cells were adherent cells, the MDA-MB-436 cell medium was DMEM+10% FBS+1% ITS-G+16 μg/ml glutathione, the Caov-3 cell medium was DMEM+10% FBS, and cells were tested in a logarithmic growth phase.
(§14) Cells in the logarithmic growth phase were collected and counted by a […]. The cell viability was detected by a trypan blue exclusion method, and the cell viability was kept over 90%. The cell concentration was adjusted to be in a proper range, and 90 μL of cell suspension was added into a 96-well plate respectively.
(§15) 2.1 DMSO stock solutions of the test compounds were prepared, and concentrations of the stock solutions of the test compounds were 10 mM respectively.
(§16) The stock solutions of the test compounds were serially diluted from 10 mM with DMSO in a 3-fold gradient for a total of 8 concentrations. Then, 2 µL of DMSO-gradient diluted compounds were respectively added into 198 µL of culture solutions to give the working stock solutions of the test compounds (a compound concentration was 10-fold higher than the final concentration, and a maximum concentration was 100 μM).
(§17) 10 μL of compound working stock solution was added into each well in the 96-well plate inoculated with cells (10-fold dilution, a final DMSO concentration was 0.1%).
(§18) Solvent control: 0.1% DMSO.
(§19) Blank control: 0 hour after dosing, the 96-well plate was detected and read.
(§20) 2.5 The 96-well plate was placed in a 5% CO2 cell incubator at 37° C. to culture for 7 days.
(§21) A CTG reagent was thawed and the 96-well plate was equilibrated to room temperature for 30 minutes, 60 μL of reagent (Celititer Glo assay kit) was added into each well, shaking was carried out for 2 minutes with a shaker (in the absence of light), and the plate was incubated at room temperature for 20 minutes (in the absence of light). Light signal values were read on a multi-functional microplate reader.
(§22) 1) inhibition (%)=(DMSO solvent control well reading−test compound well reading)/(DMSO solvent control well reading−blank control well reading)×100%;
(§23) 2) GraphPad Prism was input for drawing to obtain a curve and IC50.

Caov-3 cells [3] = assay: Second in-vitro cytological inhibitory activity experiment, first method (CelltiterGlo assay), Caov-3; type: cell-based; conditions: Homo sapiens, Caov-3, 168 h, Experimental Example 3 first method, 2,000 cells/well, 7 days
Method: as §10, §11, §12, §13, §14, §15, §16, §17, §18, §19, §20, §21, §22, §23

[4] = target: T1, Recombinant Human His6-USP1/His6-UAF1 Complex Protein; assay: In-vitro enzymatic activity on USP1, first experimental method (Ub-Rho substrate, 15 min incubation); type: biochemical; conditions: incubation at room temperature 15 minutes, read-out: Inhibitory activities on USP-1, IC50
Method: Experimental Example 1 In-vitro Enzymatic Activities of Compounds of the Present Disclosure
First Experimental Method:
1) The compounds of the present disclosure were prepared to 10 mM with DMSO, and used as test stock solutions.
2) The stock solutions of the compounds of the present disclosure were diluted in a 4-fold gradient for 10 concentrations, with a maximum concentration of 10 mM.
3) The diluted compounds of the present disclosure were respectively transferred to 384-well plates (diluted by 1,000 folds) by Echo550, 2 multiple wells were set for each concentration, and a final concentration of DMSO was […].
as §1, §2, §3, §4, §5, §6
2) Data on SpectraMax Paradigm were collected.
An inhibition (% inh) was calculated by the following formula:
as §7
IC50 was Calculated by the Following Formula:
as §8

MDA-MB-436 cells [5] = assay: First in-vitro cytological inhibitory activity experiment (CelltiterGlo assay); type: cell-based, human; conditions: Homo sapiens, MDA-MB-436, 168 h, Experimental Example 2, 4,000 cells/well, 7 days, read-out: In-vitro cytological activities, IC50, MDA-MB-436
Method: Experimental Example 2 First Experiment of in-vitro Cytological Inhibitory Activities of Compounds of the Present Disclosure
A cell line used in the following experiment was as follows: MDA-MB-436: human breast cancer cells.
Experimental method (CelltiterGlo assay)
All cells were adherent cells, the medium was DMEM+10% FBS+1% ITS-G+16 μg/ml glutathione, and the cells were tested in a logarithmic growth phase.
as §14, §15
as §16, with “[…]” for “100”
as §17
Solvent control: 0.1% DMSO. […]
as §21
1) inhibition (%)=(DMSO solvent control well reading−test compound well reading)/(DMSO solvent control well reading−blank control well reading)×100%; […]

MDA-MB-436 cells [6] = assay: Second in-vitro cytological inhibitory activity experiment, second method, MDA-MB-436; type: cell-based; conditions: Homo sapiens, Experimental Example 3 second method, 5 mM stock, 9 concentrations
Method: as §9
(§24) The concentrations of the compound stock solutions prepared were 5 mM.
(§25) The stock solutions of the test compounds were serially diluted from 5 mM with DMSO in a 3-fold gradient for a total of 9 concentrations.

Caov-3 cells [7] = assay: Second in-vitro cytological inhibitory activity experiment, second method, Caov-3; type: cell-based; conditions: Homo sapiens, Experimental Example 3 second method, 5 mM stock, 9 concentrations
Method: as §9, §24, §25

T1 sequence (O94782 whole entry): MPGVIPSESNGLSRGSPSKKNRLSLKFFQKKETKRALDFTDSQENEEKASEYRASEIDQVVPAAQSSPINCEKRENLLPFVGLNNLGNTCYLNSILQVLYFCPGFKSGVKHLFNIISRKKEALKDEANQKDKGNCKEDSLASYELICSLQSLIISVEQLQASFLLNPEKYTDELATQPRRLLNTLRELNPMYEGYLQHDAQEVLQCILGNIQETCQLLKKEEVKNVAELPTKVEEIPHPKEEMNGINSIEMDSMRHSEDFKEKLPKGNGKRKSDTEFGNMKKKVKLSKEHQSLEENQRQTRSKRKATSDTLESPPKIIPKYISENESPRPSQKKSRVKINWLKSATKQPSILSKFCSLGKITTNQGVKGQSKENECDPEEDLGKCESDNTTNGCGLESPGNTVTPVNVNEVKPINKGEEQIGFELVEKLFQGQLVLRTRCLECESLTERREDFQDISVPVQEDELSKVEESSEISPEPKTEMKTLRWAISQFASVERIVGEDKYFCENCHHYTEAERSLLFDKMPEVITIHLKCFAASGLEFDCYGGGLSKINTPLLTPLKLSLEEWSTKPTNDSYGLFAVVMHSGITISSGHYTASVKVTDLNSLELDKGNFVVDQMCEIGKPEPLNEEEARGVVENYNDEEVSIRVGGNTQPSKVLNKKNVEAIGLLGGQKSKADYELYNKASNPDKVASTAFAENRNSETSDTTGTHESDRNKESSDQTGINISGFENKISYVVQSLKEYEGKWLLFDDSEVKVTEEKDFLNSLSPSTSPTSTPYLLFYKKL
T1 sequence (Q8TAF3 whole entry partner): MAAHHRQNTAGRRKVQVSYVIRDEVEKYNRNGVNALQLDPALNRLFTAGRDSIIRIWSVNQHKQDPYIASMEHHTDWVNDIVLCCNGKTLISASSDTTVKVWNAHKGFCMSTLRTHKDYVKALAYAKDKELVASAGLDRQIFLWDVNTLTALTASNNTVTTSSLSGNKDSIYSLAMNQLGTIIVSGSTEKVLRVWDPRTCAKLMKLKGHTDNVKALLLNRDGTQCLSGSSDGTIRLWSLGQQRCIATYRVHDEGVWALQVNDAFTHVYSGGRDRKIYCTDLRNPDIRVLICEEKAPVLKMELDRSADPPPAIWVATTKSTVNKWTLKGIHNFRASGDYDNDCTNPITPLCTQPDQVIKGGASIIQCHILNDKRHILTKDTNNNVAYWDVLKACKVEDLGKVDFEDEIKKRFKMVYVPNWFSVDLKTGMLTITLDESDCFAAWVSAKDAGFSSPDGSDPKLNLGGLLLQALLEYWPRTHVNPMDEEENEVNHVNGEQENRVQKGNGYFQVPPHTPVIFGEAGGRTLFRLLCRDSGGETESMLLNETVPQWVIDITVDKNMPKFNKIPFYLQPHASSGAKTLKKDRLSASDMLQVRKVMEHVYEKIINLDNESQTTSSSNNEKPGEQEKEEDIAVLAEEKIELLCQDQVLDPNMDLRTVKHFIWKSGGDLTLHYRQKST

Row | IC50 [1] [nM] | IC50 (MDA-MB-436 cells [2]) [nM] | IC50 [4] [nM] | IC50 (MDA-MB-436 cells [5]) [nM] | IC50 (MDA-MB-436 cells [6]) [nM] | IC50 (Caov-3 cells [7]) [nM] | Structure (SMILES) | IC50 (Caov-3 cells [3]) [nM]
1 | 6.67 | 55.3 |  |  |  |  | [2H]C([2H])([2H])Oc1ncnc(C2CC2)c1-c1nc2c3c(nn(Cc4ccc(-c5nc(C(F)(F)F)cn5C(C)C)cc4)c3n1)CCC2 [Compound 16-1, 4-(4-cyclopropyl-6-(methoxy-d3)pyrimidin-5-yl)-2-(4-(1-isopropyl-4-(trifluoromethyl)-1H-imidazol-2-yl)benzyl)-2,6,7,8-tetrahydropyrazolo[3,4,5-de]quinazoline] | 1 to 600
2 |  |  | 5 | 88.1 |  |  | CC(C)c1c(F)cccc1-c1nc2c3c(nn(Cc4ccc(-c5nc(C(F)(F)F)cn5C)cc4)c3n1)CCC2 [Compound 2, 4-(3-fluoro-2-isopropylphenyl)-2-(4-(1-methyl-4-(trifluoromethyl)-1H-imidazol-2-yl)benzyl)-2,6,7,8-tetrahydropyrazolo[3,4,5-de]quinazoline] | 
3 | 15 | 122 |  |  |  |  | [2H]C([2H])([2H])Oc1ncnc(C2CC2)c1-c1nc2c3c(nn(Cc4ccc(-c5nc(C(F)(F)F)cn5C)cc4)c3n1)CCCC2 [Compound 11-1, 4-(4-cyclopropyl-6-(methoxy-d3)pyrimidin-5-yl)-2-(4-(1-methyl-4-(trifluoromethyl)-1H-imidazol-2-yl)benzyl)-6,7,8,9-tetrahydro-2H-1,2,3,5-tetraazabenzo[cd]azulene] | 1 to 600
4 | 8 | 42.3 |  |  |  |  | COc1ncnc(C2CC2)c1-c1nc2c3c(nn(Cc4ccc(-c5nc(C(F)(F)F)cn5C(C)C)cc4)c3n1)CCC2 [Compound 16, 4-(4-cyclopropyl-6-methoxypyrimidine-5-yl)-2-(4-(1-isopropyl-4-(trifluoromethyl)-1H-imidazol-2-yl)benzyl)-2,6,7,8-tetrahydropyrazolo[3,4,5-de]quinazoline] | 1 to 600
5 |  |  |  |  | 55.7 | 1 to 100 | Cn1cc(C(F)(F)F)nc1-c1ccc(Cn2nc3c4c(nc(-c5c(OC(F)F)ncnc5C5CC5)nc42)CCC3)cc1 [Compound 20, 4-(4-cyclopropyl-6-(difluoromethoxy)pyrimidin-5-yl)-2-(4-(1-methyl-4-(trifluoromethyl)-1H-imidazol-2-yl)benzyl)-2,6,7,8-tetrahydropyrazolo[3,4,5-de]quinazoline] | 
6 | 12.9 | 42.4 |  |  |  |  | [2H]C([2H])([2H])Oc1ncnc(C2CC2)c1-c1nc2c3c(nn(Cc4ccc(-c5nc(C(F)(F)F)cn5C)cc4)c3n1)CCC2 [Compound 1-1, 4-(4-cyclopropyl-6-(methoxy-d3)pyrimidin-5-yl)-2-(4-(1-methyl-4-(trifluoromethyl)-1H-imidazol-2-yl)benzyl)-2,6,7,8-tetrahydropyrazolo[3,4,5-de]quinazoline] | 1 to 600
7 | 3.98 | 29.7 |  |  |  |  | Cc1cnn(C(C)C)c1-c1nc2c3c(nn(Cc4ccc(-c5nc(C(F)(F)F)cn5C)cc4)c3n1)CCC2 [Compound 18, 4-(1-isopropyl-4-methyl-1H-pyrazol-5-yl)-2-(4-(1-methyl-4-(trifluoromethyl)-1H-imidazol-2-yl)benzyl)-2,6,7,8-tetrahydropyrazolo[3,4,5-de]quinazoline] | 1 to 600
8 | 6.66 | 110 |  |  |  |  | [2H]C([2H])([2H])Oc1ncnc(C2CC2)c1-c1nc2c3c(nn(Cc4ccc(-c5nc(C(F)(F)F)cn5C(C)C)cc4)c3n1)CCCC2 [Compound 17-1, 4-(4-cyclopropyl-6-(methoxy-d3)pyrimidin-5-yl)-2-(4-(1-isopropyl-4-(trifluoromethyl)-1H-imidazol-2-yl)benzyl)-6,7,8,9-tetrahydro-2H-1,2,3,5-tetraazabenzo[cd]azulene] | 1 to 600
9 |  |  | 28 | 68 |  |  | COc1ncnc(C2CC2)c1-c1nc2c3c(nn(Cc4ccc(-c5nc(C(F)(F)F)cn5C)cc4)c3n1)CCC2 [Compound 1, 4-(4-cyclopropyl-6-methoxypyrimidine-5-yl)-2-(4-(1-methyl-4-(trifluoromethyl)-1H-imidazol-2-yl)benzyl)-2,6,7,8-tetrahydropyrazolo[3,4,5-de]quinazoline] | 
10 |  |  | 18 |  |  |  | Cc1cc(C(F)(F)F)nn1-c1ccc(Cn2nc3c4c(nc(-c5cccc(F)c5C(C)C)nc42)CCC3)cc1 [Compound 3, 4-(3-fluoro-2-isopropylphenyl)-2-(4-(5-methyl-3-(trifluoromethyl)-1H-pyrazol-1-yl)benzyl)-2,6,7,8-tetrahydropyrazolo[3,4,5-de]quinazoline] | 
11 | 4.36 | 49.8 |  |  |  |  | Cc1cnn(C(C)C)c1-c1nc2c3c(nn(Cc4ccc(-c5nc(C(F)(F)F)cn5C(C)C)cc4)c3n1)CCC2 [Compound 19, 2-(4-(1-isopropyl-4-(trifluoromethyl)-1H-imidazol-2-yl)benzyl)-4-(1-isopropyl-4-methyl-1H-pyrazol-5-yl)-2,6,7,8-tetrahydropyrazolo[3,4,5-de]quinazoline] | 1 to 600
